Experiments:
[1] = target: T1, soluble guanylate cyclase (Sus scrofa, UniProt A0A4X1U7N1+A0ACM8Q7I6); assay: Stimulation of soluble guanylate cyclase in primary endothelial cells (intracellular cGMP, radioimmunological); type: cell-based; conditions: 10 min, test substance 1 μM, primary endothelial cells from pig aorta, NOSYNTH, stimulation buffer with or without NO donor (SNP 1 μM), read-out: % cGMP increase (NOSYNTH)
T1 construct: endogenous in cells; host or cells: primary endothelial cells from pig aorta
T1 sequence (A0A4X1U7N1 1-619): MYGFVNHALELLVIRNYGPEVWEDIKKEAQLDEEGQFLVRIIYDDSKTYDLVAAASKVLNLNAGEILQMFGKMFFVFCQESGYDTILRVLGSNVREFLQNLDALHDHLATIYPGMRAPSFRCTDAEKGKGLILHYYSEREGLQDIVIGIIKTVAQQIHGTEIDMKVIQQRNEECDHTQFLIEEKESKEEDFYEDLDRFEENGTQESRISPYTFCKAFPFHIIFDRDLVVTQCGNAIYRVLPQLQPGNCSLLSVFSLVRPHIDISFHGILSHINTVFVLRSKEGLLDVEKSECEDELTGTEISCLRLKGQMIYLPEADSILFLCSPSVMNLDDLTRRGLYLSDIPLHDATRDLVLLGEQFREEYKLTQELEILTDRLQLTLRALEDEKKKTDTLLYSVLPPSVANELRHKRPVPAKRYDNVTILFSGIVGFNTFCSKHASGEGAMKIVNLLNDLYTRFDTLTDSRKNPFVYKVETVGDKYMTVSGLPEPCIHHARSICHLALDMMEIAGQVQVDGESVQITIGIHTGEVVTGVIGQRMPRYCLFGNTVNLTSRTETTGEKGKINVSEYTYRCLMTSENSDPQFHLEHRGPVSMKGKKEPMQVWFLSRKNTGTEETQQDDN
T1 sequence (A0ACM8Q7I6 1-688): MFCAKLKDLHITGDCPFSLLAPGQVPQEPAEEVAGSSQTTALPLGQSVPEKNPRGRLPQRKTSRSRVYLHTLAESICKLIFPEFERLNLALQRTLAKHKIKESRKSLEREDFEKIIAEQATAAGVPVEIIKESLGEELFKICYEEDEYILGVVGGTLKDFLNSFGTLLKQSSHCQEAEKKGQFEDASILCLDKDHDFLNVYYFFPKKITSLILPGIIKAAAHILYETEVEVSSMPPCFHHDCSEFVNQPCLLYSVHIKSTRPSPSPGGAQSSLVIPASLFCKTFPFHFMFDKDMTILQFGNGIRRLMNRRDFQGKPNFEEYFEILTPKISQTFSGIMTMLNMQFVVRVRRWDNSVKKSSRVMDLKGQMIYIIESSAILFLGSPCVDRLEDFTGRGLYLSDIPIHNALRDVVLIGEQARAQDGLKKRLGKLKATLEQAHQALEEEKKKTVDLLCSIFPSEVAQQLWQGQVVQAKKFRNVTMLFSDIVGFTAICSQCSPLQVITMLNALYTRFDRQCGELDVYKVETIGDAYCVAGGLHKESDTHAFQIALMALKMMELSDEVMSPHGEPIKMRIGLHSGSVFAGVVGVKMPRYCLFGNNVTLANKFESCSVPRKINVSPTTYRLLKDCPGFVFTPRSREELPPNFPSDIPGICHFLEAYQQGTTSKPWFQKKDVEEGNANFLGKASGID
Method: (§1) To determine the cardiovascular action, the following investigations were carried out: in in vitro investigations on cells of vascular origin, the influence on guanylate cyclase-dependent cGMP formation was tested with and without NO donors. The vasorelaxant action was determined on rabbit aorta rings precontracted with phenylephrine. The hypotensive action was investigated in anaesthetized rats.
Stimulation of Soluble Guanylate Cyclase in Primary Endothelial Cells
Primary endothelial cells were isolated from pig aortas by treatment with collagenase soln. The cells were then cultured in culture medium until confluence was achieved. For the investigations, the cells were passaged, inoculated into cell culture plates and subcultured until confluence was achieved. To stimulate the endothelial guanylate cyclase, the culture medium was aspirated and the cells were washed once with Ringer's solution and incubated in stimulation buffer with or without NO donor (sodium nitroprusside, SNP, 1 μM). Following this, the test substances (final concentration 1 μM) were then pipetted onto the cells. After the end of the incubation time of 10 minutes, the buffer solution was aspirated and the cells were lysed at -20° C. for 16 hours. The intracellular cGMP was then determined radioimmunologically.

rabbit aorta rings = assay: Vasorelaxant action in vitro (aorta rings precontracted with phenylephrine); conditions: Oryctolagus cuniculus; isolated rabbit aorta, phenylephrine contraction, 37° C., reduction of control contraction by 50%; read-out: Aorta IC 50
Method: as §1
Vasorelaxant Action in vitro
1.5 mm wide rings of an isolated rabbit aorta are placed individually under a pretension into 5 ml organ baths containing carbogen-aerated Krebs-Henseleit solution at a temperature of 37° C. The contractile force is amplified and digitalized, and recorded in parallel on a linear recorder. To generate a contraction, phenylephrine is added to the bath cumulatively in increasing concentration.
After several control cycles, the substance to be investigated is investigated in each further passage in increasing dose in each case and the contraction is compared with the height of the contraction achieved in the last previous passage. From this, the concentration is calculated which is necessary to reduce the height of the control value by 50% (IC50). The standard administration volume is 5 μl.

anaesthetized rats = assay: Blood pressure measurements on anaesthetized rats; type: in vivo; conditions: anaesthetized male Wistar rats; for Max. blood pressure decrease: time 60 min
Method: as §1
Blood Pressure Measurements on Anaesthetized Rats
Male Wistar rats having a body weight of 300-350 g are anaesthetized with thiopental (100 mg/kg i.p.). After tracheotomy, a catheter is inserted in the femoral artery for blood pressure measurement. The substances to be tested are administered orally in various doses as a suspension in Tylose solution by means of stomach tube.

**Q.** OCc1ccc(-c2nn(Cc3ccccc3F)c3ccccc23)o1 [Example 1, 1-(2-Fluorobenzyl)-3-(5-hydroxymethylfuran-2-yl)-indazole] was tested. Which activation at 1 µM [1] did it give?
**A.** The activation at 1 µM was greater than 1000%.

**Q.** What about the IC50 (rabbit aorta rings) of the same compound?
**A.** The IC50 was 4.1 µM.

**Q.** And the “Time (of max. blood pressure decrease table)” value (anaesthetized rats; 10 mg/kg oral)?
**A.** Its value is 60 min.

**Q.** And the “Max. blood pressure decrease” value (anaesthetized rats; 10 mg/kg oral)?
**A.** The value was -14 mm Hg.

**Q.** What about the “Time (of max. blood pressure decrease table)” value (anaesthetized rats; 30 mg/kg oral) of the same compound?
**A.** The value was 60 min.

**Q.** What about the “Max. blood pressure decrease” value (anaesthetized rats; 30 mg/kg oral) of the same compound?
**A.** Its value is -18 mm Hg.

**Q.** With COc1cccc(Cn2nc(-c3ccc(CO)o3)c3ccccc32)c1 [Example 2] as the compound, how does the activation at 1 µM [1] read?
**A.** Its activation at 1 µM is 72%.

**Q.** For OCc1ccc(-c2nn(Cc3ccc(F)cc3)c3ccccc23)o1 [Example 3], which activation at 1 µM [1] is on record?
**A.** The activation at 1 µM was 250%.

**Q.** What about the IC50 (rabbit aorta rings) of the same compound?
**A.** The IC50 was 16 µM.

**Q.** Which activation at 1 µM [1] does the source give for OCc1ccc(-c2nn(Cc3cccc(F)c3)c3ccccc23)o1 [Example 4] here?
**A.** Its activation at 1 µM is 413%.

**Q.** What about the IC50 (rabbit aorta rings) of the same compound?
**A.** The IC50 was 9.2 µM.

**Q.** Which activation at 1 µM [1] does the source give for OCc1ccc(-c2nn(Cc3ccccc3F)c3cc(F)ccc23)o1 [Example 7] here?
**A.** Its activation at 1 µM is 734%.

**Q.** Which activation at 1 µM [1] does the source give for COc1cccc(Cn2nc(-c3ccc(CO)o3)c3ccc(F)cc32)c1 [Example 8] here?
**A.** The activation at 1 µM was 28%.

**Q.** Cc1ccc(-c2nn(Cc3ccccc3)c3ccccc23)o1 [Example 10] was tested. Which activation at 1 µM [1] did it give?
**A.** Its activation at 1 µM is 238%.

**Q.** OCc1ccc(-c2nn(Cc3ccccc3)c3ccccc23)s1 [Example 11] was tested. Which activation at 1 µM [1] did it give?
**A.** The activation at 1 µM was 14%.

**Q.** What does the source list for OCc1ccc(-c2nn(Cc3ccccc3)c3ccccc23)o1 [Example 14, reference compound]?
**A.** activation at 1 µM [1]: > 906%; IC50 (rabbit aorta rings): 10 µM; Time (of max. blood pressure decrease table) (anaesthetized rats; 10 mg/kg oral): 60 min; Max. blood pressure decrease (anaesthetized rats; 10 mg/kg oral): -10 mm Hg; Time (of max. blood pressure decrease table) (anaesthetized rats; 30 mg/kg oral): 60 min; Max. blood pressure decrease (anaesthetized rats; 30 mg/kg oral): -18 mm Hg

Source: patent US6180656A, “Use of condensated (hetaryl-substituted) 1-benzal-3-pyrazol derivates for treating special diseases of the cardiovascular and the central nervous systems” (Bayer Aktiengesellschaft, priority 1996, dated 2001)
